Data reported in patent US20030100550A1, “Carboxamide diazepin derivatives, preparation method, use as medicines, pharmaceutical compositions and use thereof” (priority 2002, published 2003).

Legend:
Type in all cases: biochemical
[1] = molecular target: T1, Cathepsin K (Homo sapiens, UniProt P43235); assay: Study of Cathepsin K inhibition (fluorescence, Z-Val-arg-AMC); conditions: substrate Z-Val-arg-AMC 20 μM, enzyme 5 ng/ml, 2H at ambient temperature; read-out: Cathepsin K IC50
T1 sequence (P43235 115-329): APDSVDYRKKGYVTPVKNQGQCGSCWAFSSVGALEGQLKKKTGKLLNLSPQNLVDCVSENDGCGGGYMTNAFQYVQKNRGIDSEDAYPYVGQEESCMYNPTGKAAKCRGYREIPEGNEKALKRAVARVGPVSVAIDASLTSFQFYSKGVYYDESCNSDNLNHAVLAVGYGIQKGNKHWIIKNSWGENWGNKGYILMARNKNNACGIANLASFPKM
Method: Study of Cathepsin K Inhibition:
(§1) The products to be tested (10 mM) are diluted to […] in DMSO and distributed into Nunc polystyrene 96 well plates at a rate of 2 μl per well. Column 12 of the plate is reserved for the controls and therefore receives […] of DMSO (without products) per well. The plates are stored at −80° C. and thawed on the day of the experiment.
(§2) The products are diluted to 50 μM by adding 38 μl of reaction buffer: sodium acetate 100 mM, EDTA 5 mM, DTT […] pH 5.5. The addition as well as all the operations by pipette are carried out with a CybiWell 96 tip pipette. After mixing the solutions, each product is transferred into 2 wells (duplicates) of a Greiner black 384 well plate at a rate of 10 μl per well. Two 96-well plates can therefore be tested in a 384-well plate.
(§3) A solution of substrate at 50 μM, Z-Val-arg-AMC (Calbiochem), is prepared in the reaction buffer. The substrate, is then distributed into all the wells of the 384-well plate (20 μl per well).
(§4) A solution of Cathepsin K at 12.5 ng/ml is prepared in the reaction buffer and distributed into all the wells of the 384-well plate (20 μl per well) except for the 16 wells serving as 100% inhibition controls (column 23 and 24, lines I to P) which receive 20 μl of enzyme-free buffer.
(§5) The plates are then incubated 2H at ambient temperature, then read on Fluoroskan (Labsystems): excitation 390 nm; emission 460 nm
(§6) The final concentrations of each of the reagents are: products 10 μM, substrate 20 μM, enzyme 5 ng/ml.
(§7) The % inhibition for each of the products is calculated by using points at 0 and 100% inhibition of each plate as references. The products presenting a significant inhibition are then retested on a range of concentrations from 50 to 0.5 μM to determine an IC50.

[2] = molecular target: T2, Papain (Carica papaya, UniProt P00784); assay: Study of Papain inhibition (fluorescence); conditions: enzyme 20 ng/ml, 30 minutes at ambient temperature
T2 construct: purchased Sigma
T2 sequence (P00784 134-345): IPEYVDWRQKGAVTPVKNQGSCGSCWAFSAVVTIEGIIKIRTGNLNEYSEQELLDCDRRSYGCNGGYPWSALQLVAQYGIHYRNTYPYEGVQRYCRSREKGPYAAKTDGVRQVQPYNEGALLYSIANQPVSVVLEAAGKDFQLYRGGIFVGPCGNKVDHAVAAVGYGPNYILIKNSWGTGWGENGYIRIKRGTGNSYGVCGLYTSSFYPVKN
Method: as §1, §2, §3, §4, §5, §6, §7
Study of Papain Inhibition:
(§8) Protocol identical to that of Cathepsin K except for:
Papain (Sigma), solution at 50 ng/ml, final concentration 20 ng/ml
Incubation for 30 minutes at ambient temperature

[3] = molecular target: T3, Cathepsin B (Homo sapiens, UniProt P07858); assay: Study of Cathepsin B inhibition (fluorescence, Z-arg-arg-AMC); conditions: substrate Z-arg-arg-AMC 20 μM, enzyme 16 ng/ml, 1 hour at ambient temperature
T3 construct: purchased Calbiochem
Method: as §1, §2, §3, §4, §5, §6, §7
Study of Cathepsin B Inhibition:
as §8
Z-arg-arg-AMC substrate (Calbiochem), solution at 50 μM, final concentration 20 μM
Cathepsin B (Calbiochem), solution at 40 ng/ml, final concentration 16 ng/ml
Incubation for 1 hour at ambient temperature

Row | IC50 [3] [µM] | SMILES | IC50 [1] [µM] | IC50 [2] [µM]
1 | – | C[C@H](NC(=O)[C@@H]1CCCN2C(=O)CC[C@H](NC(=O)Nc3ccc(Oc4ccccc4)cc3)C(=O)N12)C(=O)CSc1nc2ccccc2s1 [Example 450, 9-[(9S)-[[(4-phenoxyphenyl)amino]carbonyl]amino]-N-[(2S)-4-[(benzothiazol-2-yl)thio]-3-oxo-2-butyl]-octahydro-6,10-dioxo-6H-(1S)-pyridazino[1,2-a][1,2]diazepine-1-carboxamide] | 20 | 18
2 | – | CC(C)[C@H](NC(=O)[C@@H]1CCCN2C(=O)CC[C@H](NC(=O)c3ccco3)C(=O)N12)C(=O)CSc1nc2ccccc2s1 [Example 374, 9-[(9S)-[(2-furanyl)carbonyl]amino]-N-[(3S)-1-[(benzothiazol-2-yl)thio]-4-methyl-2-oxo-3-pentyl]-octahydro-6,10-dioxo-6H-(1S)-pyridazino[1,2-a][1,2]diazepine-1-carboxamide] | 20 | 7
3 | – | CC(C)[C@H](NC(=O)[C@@H]1CCCN2C(=O)CC[C@H](NC(=O)NC3CCCCC3)C(=O)N12)C(=O)CSc1nc2ccccc2s1 [Example 382, 9-[(9S)-[(cyclohexylamino)carbonyl]amino]-N-[(3S)-1-[(benzothiazol-2-yl)thio]-4-methyl-2-oxo-3-pentyl]-octahydro-6,10-dioxo-6H-(1S)-pyridazino[1,2-a][1,2]diazepine-1-carboxamide] | 20 | 9
4 | – | C=CCOC(=O)CC[C@H](NC(=O)[C@@H]1CCCN2C(=O)CC[C@H](NC(=O)Nc3ccc(Oc4ccccc4)cc3)C(=O)N12)C(=O)CSc1nnnn1-c1ccccc1 [Example 128, (2-propenyl)(4S)6-[(1-phenyl-1H-tetrazol-5-yl)thio]-4-[[[(1S,9S)-9-[[[(4-phenoxyphenyl)amino]carbonyl]amino]-octahydro-6,10-dioxo-6H-pyridazino[1,2-a][1,2]diazepine-1-yl]carbonyl]amino]-5-oxo-hexanoate] | 20 | 6
5 | – | COc1cccc(C(=O)N[C@H]2CCC(=O)N3CCC[C@@H](C(=O)N[C@H](C(=O)CSc4nc5ccccc5s4)C(C)C)N3C2=O)c1 [Example 366, 9-[(9S)-(3-methoxybenzoyl)amino]-N-[(3S)-1-[(benzothiazol-2-yl)thio]-4-methyl-2-oxo-3-pentyl]-octahydro-6,10-dioxo-6H-(1S)-pyridazino[1,2-a][1,2]diazepine-1-carboxamide] | – | 17
6 | – | C=CCOC(=O)CC[C@H](NC(=O)[C@@H]1CCCN2C(=O)CC[C@H](NC(=O)Nc3ccc(Oc4ccccc4)cc3)C(=O)N12)C(=O)COC(=O)Cc1ccsc1 [Example 134, (2-propenyl)(4S)6-[1-oxo-2-(thien-3-yl)ethoxy]-4-[[[(1S,9S)-9-[[[(4-phenoxyphenyl)amino]carbonyl]amino]-octahydro-6,10-dioxo-6H-pyridazino[1,2-a][1,2]diazepine-1-yl]carbonyl]amino]-5-oxo-hexanoate] | 20 | 7
7 | 18 | O=C(NCCc1cccs1)N[C@H]1CCC(=O)N2CCC[C@@H](C(=O)N[C@@H](Cc3ccccc3)C(=O)CN3CCN(CC(=O)N4CCCC4)CC3)N2C1=O [Example 229] | 20 | –
8 | – | [N-]=[N+]=CC(=O)[C@H](Cc1ccccc1)NC(=O)[C@@H]1CCCN2C(=O)CC[C@H](NS(=O)(=O)c3ccc(-c4ccon4)s3)C(=O)N12 [Example 166, 9-[(9S)-[[5-(isoxazol-3-yl)-2-thienyl]sulphonyl]amino]-N-((2S)-4-diazo-1-phenyl-3-oxo-2-butyl)-octahydro-6,10-dioxo-6H-(1S)-pyridazino[1,2-a][1,2]diazepine-1-carboxamide] | 20 | 2
9 | – | O=C(CSc1nc2ccccc2s1)[C@H](Cc1ccccc1)NC(=O)[C@@H]1CCCN2C(=O)CC[C@H](NS(=O)(=O)c3ccc(C(F)(F)F)cc3)C(=O)N12 [Example 241, 9-[(9S)-[[[4-(trifluoromethyl)phenyl]sulphonyl]amino]-N-[(2S)-1-phenyl-4-(2-benzothiazolyl)thio]-3-oxo-2-butyl]-octahydro-6,10-dioxo-6H-(1S)-pyridazino[1,2-a][1,2]diazepine-1-carboxamide] | – | 7
10 | – | CC(C)[C@H](NC(=O)[C@@H]1CCCN2C(=O)CC[C@H](NC(=O)NCCc3cccs3)C(=O)N12)C(=O)CSc1nc2ccccc2s1 [Example 398, 9-[(9S)-[[[2-(thien-2-yl)-ethyl]amino]carbonyl]amino]-N-[(3S)-1-[(benzothiazol-2-yl)thio]-4-methyl-2-oxo-3-pentyl]-octahydro-6,10-dioxo-6H-(1S)-pyridazino[1,2-a][1,2]diazepine-1-carboxamide] | – | 9
11 | – | O=C(Nc1ccc(Oc2ccccc2)cc1)N[C@H]1CCC(=O)N2CCC[C@@H](C(=O)N[C@@H](Cc3ccccc3)C(=O)COC(=O)Cc3ccsc3)N2C1=O [Example 216, 9-[(9S)-[[(4-phenoxyphenyl)amino]carbonyl]amino]-N-[(2S)-1-phenyl-4-[1-oxo-2-(3-thienyl)ethoxy]-3-oxo-2-butyl]-octahydro-6,10-dioxo-6H-(1S)-pyridazino[1,2-a][1,2]diazepine-1-carboxamide] | – | 6
12 | 15 | C=CCOC(=O)CC[C@H](NC(=O)[C@@H]1CCCN2C(=O)CC[C@H](NC(=O)Nc3ccc(Oc4ccccc4)cc3)C(=O)N12)C(=O)C=[N+]=[N-] [Example 43, (2-propenyl)(4S)6-diazo-4-[[[(1S,9S)-9-[[[(4-phenoxyphenyl)amino]carbonyl]amino]-octahydro-6,10-dioxo-6H-pyridazino[1,2-a][1,2]diazepine-1-yl]carbonyl]amino]-5-oxo-hexanoate] | 1.5 | –
13 | – | C=CCOC(=O)CC[C@H](NC(=O)[C@@H]1CCCN2C(=O)CC[C@H](NC(=O)Nc3ccc(Oc4ccccc4)cc3)C(=O)N12)C(=O)CSc1nc2ccccc2s1 [Example 129, (2-propenyl)(4S)6-[(benzothiazol-2-yl)thio]-4-[[[(1S,9S)-9-[[[(4-phenoxyphenyl)amino]carbonyl]amino]-octahydro-6,10-dioxo-6H-pyridazino[1,2-a][1,2]diazepine-1-yl]carbonyl]amino]-5-oxo-hexanoate] | – | 4
14 | 18 | CS(=O)(=O)N[C@H]1CCC(=O)N2CCC[C@@H](C(=O)N[C@@H](Cc3ccccc3)C(=O)COC(=O)c3c(Cl)cccc3Cl)N2C1=O [Example 234, 9-[(9S)-(methylsulphonyl)amino]-N-[(2S)-1-phenyl-4-[(-2,6-dichlorobenzoyl)oxy]-3-oxo-2-butyl]-octahydro-6,10-dioxo-6H-(1S)-pyridazino[1,2-a][1,2]diazepine-1-carboxamide] | 20 | –
15 | 4 | C[C@H](NC(=O)[C@@H]1CCCN2C(=O)CC[C@H](NC(=O)NC3CCCCC3)C(=O)N12)C(=O)COC(=O)c1c(Cl)cccc1Cl [Example 433, 9-[(9S)-[(cyclohexylamino)carbonyl]amino]-N-[(2S)-4-[(2,6-dichlorobenzoyl)oxy]-3-oxo-2-butyl]-octahydro-6,10-dioxo-6H-(1S)-pyridazino[1,2-a][1,2]diazepine-1-carboxamide] | 20 | –

Row | SMILES | IC50 [3] [µM] | IC50 [1] [µM] | IC50 [2] [µM]
16 | C=CCOC(=O)CC[C@H](NC(=O)[C@@H]1CCCN2C(=O)CC[C@H](NC(=O)c3ccco3)C(=O)N12)C(=O)COC(=O)c1c(Cl)cccc1Cl [Example 91, (2-propenyl)(4S)6-[(2,6-dichlorobenzoyl)oxy]-4-[[[(1S,9S)-9-[[(2-furanyl)carbonyl]amino]-octahydro-6,10-dioxo-6H-pyridazino[1,2-a][1,2]diazepine-1-yl]carbonyl]amino]-5-oxo-hexanoate] | < 0.2 | 6 | –
